Measured values: PMC7714403 (JCI Insight, 2020)

Tests used:
TEC = TEC (Homo sapiens, UniProt P42680); assay: KiNativ, OCI cells live cell; type: cell-based; settings: 2 h, labeling site Activation Loop, peptide […]
SBK = SBK (Homo sapiens, UniProt Q52WX2); assay: KiNativ, OCI cells live cell; type: cell-based; settings: 2 h, labeling site Lys2, peptide […]
NEK8 = NEK8 (Homo sapiens, UniProt Q86SG6); assay: KiNativ, OCI cells live cell; type: cell-based; settings: 2 h, labeling site Lys2, peptide […]
FRAP = FRAP (Homo sapiens, UniProt P42345); assay: KiNativ, OCI cells live cell; type: cell-based; settings: 2 h, labeling site ATP, peptide […]
[1] = tested on: pAURKA, pAURKB, pAKT, and MCL1 in OCI-AML3 cells; assay: Western blot, signaling inhibition; type: cell-based, human; settings: 100 nM, 4 hours
Procedure: (§1) MOM13 cells were serum starved (RPMI plus 0.5% FBS) for 18–24 hours prior to start of drug treatment. For other cells, they were not serum starved. Drug treatments were carried out for 1 or 4 hours, at which time cells were lysed with Cell Lysis buffer (CST) or RIPA buffer (CST) supplemented with protease and phosphatase inhibitors. […] Western blots were developed with either Signal Fire ECL reagent (CST) or SuperSignal West Femto Maximum Sensitivity Substrate (Invitrogen) using Film or Odyssey FC Imaging System (LI-COR Biosciences). Western blots were repeated in 2–3 biological replicate experiments.

[2] = tested on: phospho-FLT3 and phospho-STAT5 in MOLM13 and MV4-11 cells; assay: Western blot, signaling inhibition; type: cell-based, human; settings: 4 hours
Procedure: as §1

ULK3 = ULK3 (Homo sapiens, UniProt Q6PHR2); assay: KiNativ, OCI cells live cell; type: cell-based; settings: labeling site Lys1, peptide EVVAIKCVAK
BTK [3] = target: T1, BTK (Homo sapiens, UniProt Q06187); assay: KiNativ, OCI cells live cell; type: cell-based; settings: labeling site Activation Loop, peptide YVLDDEYTSSVGSKFPVR
T1 sequence (Q06187 whole entry): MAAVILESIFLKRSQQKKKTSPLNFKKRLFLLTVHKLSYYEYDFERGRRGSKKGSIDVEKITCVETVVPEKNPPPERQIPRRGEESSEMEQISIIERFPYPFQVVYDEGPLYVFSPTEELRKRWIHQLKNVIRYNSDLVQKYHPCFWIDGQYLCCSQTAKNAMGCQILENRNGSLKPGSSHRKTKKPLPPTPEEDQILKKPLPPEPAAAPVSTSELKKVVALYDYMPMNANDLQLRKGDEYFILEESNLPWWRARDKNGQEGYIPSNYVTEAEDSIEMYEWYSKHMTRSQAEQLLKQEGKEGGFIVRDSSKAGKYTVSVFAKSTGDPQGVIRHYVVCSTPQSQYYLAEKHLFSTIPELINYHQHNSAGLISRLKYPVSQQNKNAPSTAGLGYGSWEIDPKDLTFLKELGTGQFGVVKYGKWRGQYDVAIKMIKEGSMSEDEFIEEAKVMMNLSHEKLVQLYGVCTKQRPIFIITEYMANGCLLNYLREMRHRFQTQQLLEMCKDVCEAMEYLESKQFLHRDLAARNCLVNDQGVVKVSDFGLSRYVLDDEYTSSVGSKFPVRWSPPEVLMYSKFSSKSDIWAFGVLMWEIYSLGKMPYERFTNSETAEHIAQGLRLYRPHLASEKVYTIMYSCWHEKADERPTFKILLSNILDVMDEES

[4] = tested on: MV4-11, MOLM13, and MOLM13-RES cells; assay: Apoptosis assay (annexin V); type: cell-based, human; settings: 20 nM, 24 and 48 hours
Procedure: Apoptosis and CD11b expression assays
At indicated time points, cells were collected and washed with PBS. CD11b expression was measured using anti-CD11b -APC antibody (BioLegend, San Diego, CA). Each sample was suspended in 100uL of FACS buffer (PBS + 4% FBS) with 1uL of antibody, incubated on ice for 15 minutes in the dark and washed once in PBS. DAPI (final concentration 1ug/mL [ThermoFisher Scientific]) was added to each sample as a viability dye. For apoptosis assay, cells were incubated with annexin V-APC (BioLegend) according to manufacturer’s instructions. CD11b expression and apoptosis were measured by BD LSR II flow cytometer. Two-color cytometry was performed, and data were […]
points, cells were collected and washed with 0.1% EDTA PBS (Ricca Chemical Company, Arlington, TX) followed by only PBS. Cells were then fixed on ice with ice-cold 70% ethanol for 30 minutes . Cells were either stored at -20°C for up to 1 month or processed immediately. Cells were spun down at 450 x g for 10 minutes and stained

TLK2 = TLK2 (Homo sapiens, UniProt Q86UE8); assay: KiNativ, OCI cells live cell; type: cell-based; settings: 2 h
Chain of TLK2 (Q86UE8 whole entry): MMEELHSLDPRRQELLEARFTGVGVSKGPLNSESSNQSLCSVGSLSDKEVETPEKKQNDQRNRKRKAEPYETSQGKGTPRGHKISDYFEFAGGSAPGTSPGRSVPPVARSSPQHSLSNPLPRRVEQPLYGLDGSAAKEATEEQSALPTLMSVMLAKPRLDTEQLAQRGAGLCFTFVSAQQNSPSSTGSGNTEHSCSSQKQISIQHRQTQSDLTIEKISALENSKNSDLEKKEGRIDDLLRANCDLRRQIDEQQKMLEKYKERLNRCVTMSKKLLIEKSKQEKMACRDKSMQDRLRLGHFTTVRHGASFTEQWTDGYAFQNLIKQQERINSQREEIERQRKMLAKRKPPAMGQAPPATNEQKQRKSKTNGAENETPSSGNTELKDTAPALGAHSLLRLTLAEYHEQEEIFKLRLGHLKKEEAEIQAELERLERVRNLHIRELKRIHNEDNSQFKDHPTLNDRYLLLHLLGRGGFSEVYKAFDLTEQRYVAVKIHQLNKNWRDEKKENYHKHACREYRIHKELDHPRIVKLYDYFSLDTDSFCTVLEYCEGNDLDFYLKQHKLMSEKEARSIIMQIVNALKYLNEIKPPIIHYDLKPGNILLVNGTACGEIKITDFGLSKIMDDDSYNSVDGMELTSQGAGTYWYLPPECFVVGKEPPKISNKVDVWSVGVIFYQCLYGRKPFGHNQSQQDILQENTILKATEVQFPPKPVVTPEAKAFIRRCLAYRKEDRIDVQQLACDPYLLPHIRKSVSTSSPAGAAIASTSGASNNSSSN

PIP4K2B = PIP4K2B (Homo sapiens, UniProt P78356); assay: KiNativ, OCI cells live cell; type: cell-based; settings: 2 h, labeling site ATP, peptide […]
Chain of PIP4K2B (P78356 whole entry): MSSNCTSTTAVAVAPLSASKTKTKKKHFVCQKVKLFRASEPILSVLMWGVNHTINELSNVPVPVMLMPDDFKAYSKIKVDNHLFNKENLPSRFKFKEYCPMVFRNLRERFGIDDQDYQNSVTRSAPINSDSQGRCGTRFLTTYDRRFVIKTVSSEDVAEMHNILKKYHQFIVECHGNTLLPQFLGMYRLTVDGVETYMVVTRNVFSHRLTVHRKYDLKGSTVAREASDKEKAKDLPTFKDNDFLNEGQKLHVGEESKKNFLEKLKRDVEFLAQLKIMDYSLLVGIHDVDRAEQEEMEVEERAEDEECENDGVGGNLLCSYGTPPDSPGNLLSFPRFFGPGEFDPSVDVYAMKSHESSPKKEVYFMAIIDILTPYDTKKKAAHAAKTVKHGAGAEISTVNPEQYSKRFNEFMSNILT

ZAK = ZAK (Homo sapiens, UniProt Q9NYL2); assay: KiNativ, OCI cells live cell; type: cell-based; settings: 2 h, labeling site Lys1, peptide […]
Chain of ZAK (Q9NYL2 whole entry): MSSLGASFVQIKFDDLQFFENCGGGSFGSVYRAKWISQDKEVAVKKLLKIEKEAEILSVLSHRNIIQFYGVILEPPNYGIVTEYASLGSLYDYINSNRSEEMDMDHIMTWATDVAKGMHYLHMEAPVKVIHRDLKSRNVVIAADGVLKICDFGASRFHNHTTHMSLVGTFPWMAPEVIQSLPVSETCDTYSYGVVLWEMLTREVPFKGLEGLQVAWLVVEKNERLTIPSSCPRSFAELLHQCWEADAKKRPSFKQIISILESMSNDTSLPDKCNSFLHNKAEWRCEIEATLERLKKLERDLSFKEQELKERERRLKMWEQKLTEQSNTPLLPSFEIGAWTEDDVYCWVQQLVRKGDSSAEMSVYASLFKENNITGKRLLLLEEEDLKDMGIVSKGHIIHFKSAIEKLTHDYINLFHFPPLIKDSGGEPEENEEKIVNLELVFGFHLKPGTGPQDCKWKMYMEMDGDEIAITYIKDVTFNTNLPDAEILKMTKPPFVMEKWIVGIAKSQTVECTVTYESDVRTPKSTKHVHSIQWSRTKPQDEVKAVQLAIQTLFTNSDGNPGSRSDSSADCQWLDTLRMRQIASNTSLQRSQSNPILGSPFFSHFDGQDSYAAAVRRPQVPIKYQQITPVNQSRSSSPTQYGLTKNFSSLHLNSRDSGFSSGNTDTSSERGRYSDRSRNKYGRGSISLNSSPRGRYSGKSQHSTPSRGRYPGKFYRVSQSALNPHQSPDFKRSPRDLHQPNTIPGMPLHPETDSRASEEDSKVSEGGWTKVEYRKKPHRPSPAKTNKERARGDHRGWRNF

Wnk1, Wnk2, Wnk3 = assay: KiNativ, OCI cells live cell; type: cell-based, human; settings: labeling site Lys2, peptide DLKCDNIFITGPTGSVK
MARK1, MARK2 = assay: KiNativ, OCI cells live cell; type: cell-based, human; settings: labeling site Lys1, peptide EVAVKIIDK
BARK1 = BARK1 (Homo sapiens, UniProt P25098); assay: KiNativ, OCI cells live cell; type: cell-based; settings: 2 h, labeling site Lys2, peptide […]
Chain of BARK1 (P25098 whole entry): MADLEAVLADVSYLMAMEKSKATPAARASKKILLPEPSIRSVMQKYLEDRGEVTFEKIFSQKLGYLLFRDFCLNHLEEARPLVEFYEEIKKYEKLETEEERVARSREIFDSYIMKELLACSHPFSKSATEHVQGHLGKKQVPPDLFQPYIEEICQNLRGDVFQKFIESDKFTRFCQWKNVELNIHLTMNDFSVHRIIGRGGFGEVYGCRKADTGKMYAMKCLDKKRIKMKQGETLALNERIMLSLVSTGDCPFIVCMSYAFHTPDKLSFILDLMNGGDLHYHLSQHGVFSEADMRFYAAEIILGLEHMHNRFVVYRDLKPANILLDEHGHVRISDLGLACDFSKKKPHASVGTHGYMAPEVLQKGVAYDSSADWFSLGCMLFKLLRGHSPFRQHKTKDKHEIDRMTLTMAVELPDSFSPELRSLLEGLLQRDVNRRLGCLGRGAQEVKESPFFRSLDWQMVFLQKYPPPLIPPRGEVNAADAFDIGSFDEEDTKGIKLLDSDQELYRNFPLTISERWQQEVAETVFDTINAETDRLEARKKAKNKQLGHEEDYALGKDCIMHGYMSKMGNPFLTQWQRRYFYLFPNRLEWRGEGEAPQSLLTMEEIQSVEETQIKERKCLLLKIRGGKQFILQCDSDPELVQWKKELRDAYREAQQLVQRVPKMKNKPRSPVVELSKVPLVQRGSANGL

MAP4K3 = MAP4K3 (Homo sapiens, UniProt Q8IVH8); assay: KiNativ, OCI cells live cell; type: cell-based; settings: labeling site Lys2, peptide DIKGANILLTDNGHVK
BTK [5] = target: T1, BTK; assay: KdELECT binding assay; design: purchased Eurofins DiscoverX
AMPKa1, AMPKa2 = assay: KiNativ, OCI cells live cell; type: cell-based, human
CDC2 = CDC2 (Homo sapiens, UniProt P06493); assay: KiNativ, OCI cells live cell; type: cell-based; settings: 2 h
Chain of CDC2 (P06493 whole entry): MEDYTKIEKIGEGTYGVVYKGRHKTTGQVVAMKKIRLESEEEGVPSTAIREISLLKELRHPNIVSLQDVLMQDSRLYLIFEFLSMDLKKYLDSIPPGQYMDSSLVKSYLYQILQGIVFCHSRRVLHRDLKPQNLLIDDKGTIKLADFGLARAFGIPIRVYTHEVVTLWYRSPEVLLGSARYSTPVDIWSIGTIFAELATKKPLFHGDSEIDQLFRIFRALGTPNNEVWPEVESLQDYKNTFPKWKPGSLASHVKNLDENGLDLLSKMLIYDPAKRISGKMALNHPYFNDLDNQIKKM

Erk2 = Erk2 (Homo sapiens, UniProt P28482); assay: KiNativ, OCI cells live cell; type: cell-based; settings: 2 h, labeling site Lys2, peptide […]
Chain of Erk2 (P28482 whole entry): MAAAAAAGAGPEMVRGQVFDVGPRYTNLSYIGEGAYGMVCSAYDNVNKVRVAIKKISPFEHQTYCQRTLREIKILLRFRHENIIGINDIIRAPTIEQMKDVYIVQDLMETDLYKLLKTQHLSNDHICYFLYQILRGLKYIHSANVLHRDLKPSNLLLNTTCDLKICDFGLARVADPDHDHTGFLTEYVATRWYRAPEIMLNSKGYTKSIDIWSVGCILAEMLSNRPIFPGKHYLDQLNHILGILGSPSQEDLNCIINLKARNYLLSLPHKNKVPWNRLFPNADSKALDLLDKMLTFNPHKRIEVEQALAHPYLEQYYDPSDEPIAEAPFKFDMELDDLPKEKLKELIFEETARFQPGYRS

40 kinases = settings: 200 nM; 11 of 40 kinases; cited from earlier work
CK2a1 = CK2a1 (Homo sapiens, UniProt P68400); assay: KiNativ, OCI cells live cell; type: cell-based; settings: 2 h, labeling site Protein Kinase Domain, peptide […]
IKKe = IKKe (Homo sapiens, UniProt Q14164); assay: KiNativ, OCI cells live cell; type: cell-based; settings: 2 h, labeling site Lys1, peptide […]
MARK3 = MARK3 (Homo sapiens, UniProt P27448); assay: KiNativ, OCI cells live cell; type: cell-based; settings: 2 h, labeling site Lys1, peptide […]
MLK4 = MLK4 (Homo sapiens, UniProt Q5TCX8); assay: KiNativ, OCI cells live cell; type: cell-based; settings: 2 h, labeling site Lys2, peptide […]
PCTAIRE2 = PCTAIRE2 (Homo sapiens, UniProt Q00537); assay: KiNativ, OCI cells live cell; type: cell-based; settings: 2 h, labeling site Lys2, peptide […]
LYN = LYN (Homo sapiens, UniProt P07948); assay: KiNativ, OCI cells live cell; type: cell-based; settings: 2 h
Chain of LYN (P07948 whole entry): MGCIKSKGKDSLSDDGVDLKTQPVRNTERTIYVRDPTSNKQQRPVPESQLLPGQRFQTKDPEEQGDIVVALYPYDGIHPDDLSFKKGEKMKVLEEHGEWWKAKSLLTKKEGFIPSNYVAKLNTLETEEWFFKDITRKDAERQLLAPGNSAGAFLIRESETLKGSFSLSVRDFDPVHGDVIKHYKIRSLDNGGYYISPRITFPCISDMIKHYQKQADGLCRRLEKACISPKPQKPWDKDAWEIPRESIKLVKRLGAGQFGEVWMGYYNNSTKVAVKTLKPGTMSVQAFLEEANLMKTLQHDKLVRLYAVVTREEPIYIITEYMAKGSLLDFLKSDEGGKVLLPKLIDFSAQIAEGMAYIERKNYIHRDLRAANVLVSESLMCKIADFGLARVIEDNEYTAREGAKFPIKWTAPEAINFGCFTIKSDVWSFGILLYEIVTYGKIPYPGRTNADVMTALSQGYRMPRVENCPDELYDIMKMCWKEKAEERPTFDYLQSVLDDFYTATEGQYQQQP

Chain of SBK (Q52WX2 whole entry): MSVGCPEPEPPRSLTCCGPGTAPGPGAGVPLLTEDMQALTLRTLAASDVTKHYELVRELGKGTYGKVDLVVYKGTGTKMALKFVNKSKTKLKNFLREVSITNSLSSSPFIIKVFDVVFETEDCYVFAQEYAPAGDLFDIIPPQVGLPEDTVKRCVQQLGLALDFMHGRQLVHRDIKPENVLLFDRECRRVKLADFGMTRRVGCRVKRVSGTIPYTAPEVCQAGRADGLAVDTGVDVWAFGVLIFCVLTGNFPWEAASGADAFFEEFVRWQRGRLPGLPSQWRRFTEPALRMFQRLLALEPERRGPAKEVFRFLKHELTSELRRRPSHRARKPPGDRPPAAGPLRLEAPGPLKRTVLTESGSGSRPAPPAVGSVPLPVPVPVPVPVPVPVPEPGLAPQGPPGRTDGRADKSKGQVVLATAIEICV

## CN1CCN(Cc2ccc(Nc3ncc(Cl)c(Nc4ccccc4S(=O)(=O)N(C)C)n3)cc2)CC1 [TP-0903]
TEC
  inhibition at 0.1 µM: 31.9%
SBK
  inhibition at 0.1 µM: -0.9%
NEK8
  inhibition at 0.1 µM: -6.8%
FRAP
  inhibition at 0.1 µM: 7.9%
[1]
  pAURKA, pAURKB, pAKT, and MCL1 by immunoblot: inhibited
[2]
  phospho-FLT3 and phospho-STAT5 by immunoblot: inhibited
ULK3
  Inhibition: 40.5%
BTK [3]
  Inhibition: 57.3%
[4]
  Apoptosis: significant apoptosis
TLK2; labeling site Lys1, peptide YVAVKIHQLNK
  inhibition at 0.1 µM: -7.2%
TLK2; labeling site Lys2, peptide YLNEIKPPIIHYDLKPGNILLVNGTACGEIK
  inhibition at 0.1 µM: -3.1%
PIP4K2B
  inhibition at 0.1 µM: -24.4%
ZAK
  inhibition at 0.1 µM: 5.3%
Wnk1, Wnk2, Wnk3
  Inhibition: -14.9%
MARK1, MARK2
  Inhibition: 26.6%
BARK1
  inhibition at 0.1 µM: -3.8%
MAP4K3
  Inhibition: 64.9%
BTK [5]
  Kd: 13 nM
AMPKa1, AMPKa2; labeling site Lys1, peptide VAVKILNR
  Inhibition: 71.8%
AMPKa1, AMPKa2; labeling site Lys2, peptide DLKPENVLLDAHMNAK
  Inhibition: 75.1%
CDC2; labeling site Lys1, peptide TTGQVVAMKK
  inhibition at 0.1 µM: -4.5%
CDC2; labeling site Lys2, peptide DLKPQNLLIDDK
  inhibition at 0.1 µM: -2.5%
CDC2; labeling site Protein Kinase Domain, peptide KPLFHGDSEIDQLFR
  inhibition at 0.1 µM: -37.1%
Erk2
  inhibition at 0.1 µM: 22.7%
40 kinases
  Inhibition of kinases: > 50%
CK2a1
  inhibition at 0.1 µM: -50.8%
IKKe
  inhibition at 0.1 µM: 30.5%
MARK3
  inhibition at 0.1 µM: 47%
MLK4
  inhibition at 0.1 µM: 12.7%
PCTAIRE2
  inhibition at 0.1 µM: 87.8%
LYN; labeling site Activation Loop, peptide EGAKFPIKWTAPEAINFGCFTIK
  inhibition at 0.1 µM: 19.1%
LYN; labeling site Lys1, peptide VAVKTLKPGTMSVQAFLEEANLMK
  inhibition at 0.1 µM: 17.6%
